# Read-outs that look alike come from different tables or passages of the source.
# What was measured:
# Assay type in all cases: cell-based
# E. coli = assay: Chequerboard assay, FIC and synergy analysis; conditions: Escherichia coli
# Method: (§1) Chlorhexidine gluconate (CHG) and octenidine dihydrochloride (OCT) were analyzed by chequerboard assay with each test organism to determine potential additive, synergistic, and antagonistic activity. The test organisms S. aureus, P. aeruginosa, and E. coli were tested at ranges of chlorhexidine gluconate (0.122-15.625 μg/ml, 1.25-160 μg/ml, and 0.125-16 μg/ml, respectively) and octenidine dihydrochloride (0.029-3.75 μg/mL, 0.029-3.75 μg/mL, and 0.029-3.75 μg/mL, respectively). FIC was calculated by the following Equation 2: […]
# S. aureus = assay: Chequerboard assay, FIC and synergy analysis; conditions: Staphylococcus aureus
# Method: as §1
# P. aeruginosa = assay: Chequerboard assay, FIC and synergy analysis; conditions: Pseudomonas aeruginosa
# Method: as §1
# S. aureus (ATCC 6538) [1] = assay: Minimal bactericidal concentration determination, serial 2-fold dilution; conditions: 250 μg/mL (0.025% w/w), positive control
# Method: (§2) The minimal bactericidal concentration (MBC) of octenidine dihydrochloride was determined against S. aureus (ATCC 6538), P. aeruginosa (ATCC 15442), and E. coli (ATCC BAA 1427) by serial 2-fold dilution experiments. A solution of chlorhexidine (0.025% w/w) was used as a positive control and comparator.
# E. coli (ATCC BAA 1427) [2] = assay: as above
# Method: as §2
# [3] = test system: P. aeruginosa (ATCC 15442); assay: as above; conditions: 250 μg/mL (0.025% w/w), positive control
# Method: as §2
# S. aureus (ATCC 6538) [4] = assay: Minimum inhibitory concentration determination, serial 2-fold dilution; conditions: Staphylococcus aureus, ATCC6538, read-out: Average Growth Inhibition (%)
# Method: as §2, with “inhibitory” for “bactericidal”, “(MIC, the minimum inhibitory concentration required for 90% growth reduction)” for “(MBC)”, “octenidine” for “octenidine dihydrochloride”
# E. coli (ATCC BAA 1427) [5] = assay: as above; conditions: Escherichia coli, BAA1427, 250 μg/mL (0.025% w/w), positive control, read-out: Average Growth Inhibition (%)
# Method: as §2, with “inhibitory” for “bactericidal”, “(MIC, the minimum inhibitory concentration required for 90% growth reduction)” for “(MBC)”, “octenidine” for “octenidine dihydrochloride”
# [6] = test system: P. aeruginosa (ATCC 15442); assay: as above; conditions: Pseudomonas aeruginosa, ATCC15442, read-out: Average Growth Inhibition (%)
# Method: as §2, with “inhibitory” for “bactericidal”, “(MIC, the minimum inhibitory concentration required for 90% growth reduction)” for “(MBC)”, “octenidine” for “octenidine dihydrochloride”
# [7] = in presence of OCT, read-out: MIC of CHG in Presence of OCT
structure (smiles),measurement,setting,value
"N=C(NCCCCCCNC(=N)NC(=N)Nc1ccc(Cl)cc1)NC(=N)Nc1ccc(Cl)cc1 [Chlorhexidine gluconate, 1-[amino-[6-[amino-[amino-(4-chlorophenyl)amino-methylidene]amino-methylidene]aminohexylimino]methyl]imino-N-(4-chlorophenyl)-methanediamine; (2R,3S,4R,5R)-2,3,4,5,6-pentahydroxyhexanoic acid.]",MIC,E. coli; [7],8 µg/mL
same,MIC,E. coli; read-out: MIC of CHG Alone,16 µg/mL
same,MIC,S. aureus; [7],2 µg/mL
same,MIC,S. aureus; read-out: MIC of CHG Alone,4 µg/mL
same,MIC,P. aeruginosa; read-out: MIC of CHG Alone (μg/mL),32 µg/mL
same,MIC,P. aeruginosa; read-out: MIC of CHG in Presence of OCT (μg/mL),16 µg/mL
same,CFU/mL,S. aureus (ATCC 6538) [1],0 CFU/mL
same,Number of Colonies,S. aureus (ATCC 6538) [1],0
same,Number of Colonies,S. aureus (ATCC 6538) [1]; listed as chlorhexidine,no colonies
same,CFU/mL,E. coli (ATCC BAA 1427) [2],0 CFU/mL
same,Number of Colonies,E. coli (ATCC BAA 1427) [2],0
same,Number of Colonies,"E. coli (ATCC BAA 1427) [2]; E. coli (ATCC BAA 1427), 250 μg/mL (0.025% w/w), positive control",no colonies
same,CFU/mL,[3],0 CFU/mL
same,Number of Colonies,[3],0
same,Number of Colonies,[3]; listed as chlorhexidine,no colonies
same,inhibition at 250 µg/mL,S. aureus (ATCC 6538) [4],121%
same,inhibition at 250 µg/mL,E. coli (ATCC BAA 1427) [5],63%
same,inhibition at 250 µg/mL,[6],81%

# — patent US20250213542A1, “DEVICES AND METHODS FOR DELIVERING SYNERGISTIC ACTIVE AGENTS TO TARGET SITES” (IRRIMAX Corporation, priority 2023, published 2025)
